For this series the following is noted: Crystal; DTA.

Drawing on the NIST ThermoML archive (doi:10.1016/j.tca.2017.03.024), this text covers Normal melting temperature for three molecules.

Numbers after ± are expanded uncertainties.

For `[Cl-].[Li+]` [lithium chloride], the Normal melting temperature amounted to 605 ± 1 °C.
Take `[Cl-].[K+]` [potassium chloride]: the Normal melting temperature was 772 ± 1 °C.
As for `[Cl][Pr]([Cl])[Cl]` [praseodymium(III) chloride], the Normal melting temperature was determined as 778 ± 1 °C.
